Experimental data as given in publication PMC12797721 (Cell Communication and Signaling : CCS, 2025).

Assays:
C18ORF32 [1] = target: C18ORF32 (Homo sapiens, UniProt Q8TCD1, F19A/Y16A/Y23A/Y25A); assay: isothermal titration calorimetry; type: binding
C18ORF32 [2] = target: C18ORF32 (Homo sapiens, UniProt Q8TCD1); assay: isothermal titration calorimetry; type: binding
Sequence of C18ORF32 (Homo sapiens, UniProt Q8TCD1) (Q8TCD1 whole entry): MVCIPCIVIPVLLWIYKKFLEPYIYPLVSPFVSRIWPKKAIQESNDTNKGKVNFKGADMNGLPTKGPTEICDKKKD

Sequence of C18ORF32 (Homo sapiens, UniProt Q8TCD1, F19A/Y16A/Y23A/Y25A) (Q8TCD1 whole entry Y16A/F19A/Y23A/Y25A): as the sequence (Q8TCD1 whole entry) above, with Y16A, F19A, Y23A, Y25A counted along it

Molecule `C[N+](C)(C)CCO` [choline] has a Kd (C18ORF32 [1]) of 557 µM and a Kd (C18ORF32 [2]) of 0.0678 µM.
